Experimental data taken from US4515793A, “Phenylpiperazines which are useful in the treatment of schistosomiasis” (Edna McConnell Clark Foundation, priority 1983, dated 1985).
Read-outs that look alike come from different tables or passages of the source.

System: S. mansoni
Test: antischistosomal activity in mice (live worm burden, single oral dose)
Type: in vivo, S. mansoni (host: CD1 white female mice)
Conditions: Schistosoma mansoni, read-out: % Reduction Live Worm Burden; for inhibition in vivo at 160 mg/kg: mice (footnote, 125 mg/kg column)
Protocol: Tests were conducted to determine the antischistosomal activity in mice and monkeys. The results of the mice tests are reported in Tables 1 to 4 along with the chemical identifications of the compounds synthesized and tested.
The mice tests were conducted as follows:
A. Preinfection Procedures: Purina Laboratory chow (Ralston-Purina) and water were given ad libitum. All mice were housed in hanging stainless steel cages, without bedding, five per cage. They were kept in a ward with an ambient temperature of 75° F. and a relative humidity of 50-55%. Therapeutic treatment was given on Day 40 post-infection.
B. Experimental Procedures: CD1 white female mice were exposed by the tail immersion method for 30 minutes to 80 individually counted S. mansoni cercariae (WRAIR laboratory strain). The cercariae were obtained from pools of no less than 25 Biophalaria glabrata snails. Each experiment consisted of 118 mice divided into infected/water treated and infected/vehicle-treated controls, and infected/drug-treated groups (two dose levels) for six compounds. Groups of 12 mice each were treated with a compound synthesized and provided by the Warner-Lambert Company, Ann Arbor, Mich. at two dose levels. At the same time, five mice were sacrificed to establish worm burdens as infection controls. Three weeks after treatment, all remaining mice were sacrificed and perfused. Gross pathology (liver and intestines) was noted and graded (0 to +3). Worm burdens were determined and the sex of the worms recorded. Following perfusions the liver and intestines were removed and examined for the presence of […] or dead worms. […] Drugs were administered orally in Emulphor EL.
C. Drug Treatment: Treatment consisted of a single oral dose. Each drug was give initially at two dose levels, 40 mg/kg and 125 mg/kg, SID×1.
D. Criteria Used to Evaluate Therapeutic Effectiveness:
Evaluation of activity was determined by examination of the animals at 23 to 28 days after treatment. The schistosomes remaining alive after treatment were counted in the perfusates of the hepatic portal system and in press preparation of the livers. In the same preparations, the relative numbers of dead and/or encapsulated (i.e., worms may or may not be dead) parasites and the relative degree of pathology were ascertained. The efficacy of each treatment was that percentage of the control infection represented by the difference between numbers of parasites recovered from control (H2 O+vehicle) and treated animals. Thus, % efficacy is: [formula]

[1] = 40 mg/kg, single oral dose, mice
[2] = 125 mg/kg, single oral dose, mice

| Structure (SMILES) | inhibition in vivo at 40 mg/kg [1] [%] | inhibition in vivo at 125 mg/kg [2] [%] | inhibition in vivo at 20 mg/kg (single oral dose, mice) [%] | inhibition in vivo at 160 mg/kg (single oral dose) [%] | inhibition in vivo at 40 mg/kg [%] | inhibition in vivo at 125 mg/kg [%] |
| --- | --- | --- | --- | --- | --- | --- |
| O=C(CN1CCN(c2ccc(CO)c(Cl)c2)CC1)c1ccc(Cl)cc1 [Cpd. 1] | 42 | 67 | – | – | – | – |
| O=C(CN1CCN(c2ccc(CO)c(Cl)c2)CC1)c1ccc(F)cc1 [Cpd. 2] | 19 | 61 | – | – | – | – |
| O=C(CN1CCN(c2ccc(CO)c(Cl)c2)CC1)c1ccc(Cl)cc1Cl [Cpd. 3] | 81 | 94 | 62 | – | – | – |
| O=C(CN1CCN(c2ccc(CO)c(Cl)c2)CC1)c1ccc(S(=O)(=O)N2CCCCC2)cc1 [Cpd. 4] | -10 | 66 | – | – | – | – |
| O=C(CN1CCN(c2ccc(CO)c(Cl)c2)CC1)c1ccc([N+](=O)[O-])cc1 [Cpd. 5] | 74 | 98 | – | – | – | – |
| O=C(CN1CCN(c2ccc(CO)c(Cl)c2)CC1)c1ccc(I)cc1 [Cpd. 6] | 62 | 83 | – | – | – | – |
| O=C(CN1CCN(c2ccc(CO)c(Cl)c2)CC1)c1cccc([N+](=O)[O-])c1 [Cpd. 12, 2-[4-[3-chloro-4-(hydroxymethyl)phenyl]-1-piperazinyl]-1(3-nitrophenyl)ethanone] | 31 | 73 | – | – | – | – |
| O=C(CN1CCN(c2ccc(CO)c(Cl)c2)CC1)c1ccc(Cl)c([N+](=O)[O-])c1 [Cpd. 14] | 56 | – | – | 99 | – | – |
| Nc1cccc(C(=O)CN2CCN(c3ccc(CO)c(Cl)c3)CC2)c1 [Cpd. 25, 2-[4-[3-Chloro-4-(hydroxymethyl)phenyl]-1-piperazinyl]-1-(3-aminophenyl)-ethanone] | -11 | 46 | – | – | – | – |
| CSc1ccc(C(=O)CCN2CCN(c3ccc(CO)c(Cl)c3)CC2)cc1 [Cpd. 31] | 73 | 93 | – | – | – | – |
| CS(=O)(=O)c1ccc(C(=O)CCN2CCN(c3ccc(CO)c(Cl)c3)CC2)cc1 [Cpd. 32] | 84 | 91 | 43 | – | – | – |
| O=C(CCN1CCN(c2ccc(CO)c(Cl)c2)CC1)c1ccc(Cl)c([N+](=O)[O-])c1 [Cpd. 35] | 79 | 98 | – | – | – | – |
| Nc1cc(C(=O)CCN2CCN(c3ccc(CO)c(Cl)c3)CC2)ccc1Cl [Cpd. 37] | 83 | 95 | 81 | – | – | – |
| O=C(CCN1CCN(c2ccc(CO)c(Cl)c2)CC1)c1ccco1 [Cpd. 57] | 85 | 98 | 60 | – | – | – |
| O=C(CCCN1CCN(c2ccc(CO)c(Cl)c2)CC1)c1cccs1 [Cpd. 58, 4-[4-[3-Chloro-4-(hydroxymethyl)phenyl]-1-piperazinyl]-1-(2-thienyl)-1-butanone] | 20 | 77 | – | – | – | – |
| O=C(CCCN1CCN(c2ccc(CO)c(Cl)c2)CC1)c1ccc(Cl)cc1 [Cpd. 59, 1-(4-Chlorophenyl)-4-[4-[3-chloro-4-(hydroxymethyl)phenyl]-1-piperazinyl]-1-butanone] | 30 | 68 | – | – | – | – |
| CC(O)(CN1CCN(c2ccc(CO)c(Cl)c2)CC1)c1ccc(Cl)cc1 (stereo not shown) [Cpd. 61] | 88 | 96 | 68 | – | – | – |
| O=C(CN1CCN(c2ccc(CO)c(Cl)c2)CC1)c1ccc(C(=O)Oc2ccccc2)cc1 [compound 7] | -20 | 0 | – | – | – | – |
| COc1ccc(C(=O)CN2CCN(c3ccc(CO)c(Cl)c3)CC2)c(OC)c1OC [compound 9] | 13 | 30 | – | – | – | – |
| COc1cc(C(=O)CN2CCN(c3ccc(CO)c(Cl)c3)CC2)cc(OC)c1OC [compound 10] | -23 | – | – | 13 | – | – |
| CC(C)(C)c1ccc(C(=O)CN2CCN(c3ccc(CO)c(Cl)c3)CC2)cc1 [compound 11] | 16 | – | – | 59 | – | – |
| O=C(CN1CCN(c2ccc(CO)c(Cl)c2)CC1)c1cc(Cl)c(Cl)cc1Cl [compound 13] | 86 | 98 | 53 | – | – | – |
| O=C(CN1CCN(c2ccc(CO)c(Cl)c2)CC1)c1ccc(C(F)(F)F)cc1 [compound 15] | 43 | 79 | – | – | – | – |

| Structure (SMILES) | inhibition in vivo at 40 mg/kg [1] [%] | inhibition in vivo at 125 mg/kg [2] [%] | inhibition in vivo at 20 mg/kg (single oral dose, mice) [%] | inhibition in vivo at 160 mg/kg (single oral dose) [%] | inhibition in vivo at 40 mg/kg [%] | inhibition in vivo at 125 mg/kg [%] |
| --- | --- | --- | --- | --- | --- | --- |
| O=C(CN1CCN(c2ccc(CO)c(Cl)c2)CC1)c1cc(Cl)cc(Cl)c1 [compound 16] | 64 | 89 | – | – | – | – |
| Cc1cc(C)c(C(=O)CN2CCN(c3ccc(CO)c(Cl)c3)CC2)cc1C [compound 17] | 29 | – | – | 71 | – | – |
| O=C(CN1CCN(c2ccc(CO)c(Cl)c2)CC1)c1ccc(Cl)cc1O [compound 18] | 5 | – | – | 26 | – | – |
| O=C(CN1CCN(c2ccc(CO)c(Cl)c2)CC1)c1ccc2ccccc2c1 [compound 19] | -37 | 17 | – | – | – | – |
| O=C(CN1CCN(c2ccc(CO)c(Cl)c2)CC1)c1cc(Cl)ccc1Cl [compound 20] | 65 | – | 72 | 99 | – | – |
| Cc1cc(C)c(C(=O)CN2CCN(c3ccc(CO)c(Cl)c3)CC2)c(C)c1 [compound 21] | 27 | 78 | – | – | – | – |
| O=C1c2ccccc2CCC1N1CCN(c2ccc(CO)c(Cl)c2)CC1 (stereo not shown) [compound 22] | – | – | – | – | 73 | 87 |
| N#Cc1ccc(C(=O)CN2CCN(c3ccc(CO)c(Cl)c3)CC2)cc1 [compound 23] | 40 | 90 | – | – | – | – |
| O=C(CN1CCN(c2ccc(CO)c(Cl)c2)CC1)c1cccc2ccccc12 [compound 24] | 3 | 64 | – | – | – | – |
| Nc1cc(C(=O)CN2CCN(c3ccc(CO)c(Cl)c3)CC2)ccc1Cl [compound 26] | -12 | 45 | – | – | – | – |
| O=C(CN1CCN(c2ccc(CO)c(Cl)c2)CC1)c1cccc(Cl)c1 [compound 27] | 64 | 83 | – | – | – | – |
| O=C(CCN1CCN(c2ccc(CO)c(Cl)c2)CC1)c1ccccc1 [compound 29] | 69 | 89 | – | – | – | – |
| Cc1ccc(C(=O)CCN2CCN(c3ccc(CO)c(Cl)c3)CC2)cc1 [compound 30] | 75 | 96 | – | – | – | – |
| O=C(CCN1CCN(c2ccc(CO)c(Cl)c2)CC1)c1ccc(C2CCCCC2)cc1 [compound 33] | 79 | 93 | – | – | – | – |
| COc1ccc(C(=O)CCN2CCN(c3ccc(CO)c(Cl)c3)CC2)cc1 [compound 34] | 39 | 93 | – | – | – | – |
| O=C(CCN1CCN(c2ccc(CO)c(Cl)c2)CC1)c1ccc2ccccc2c1 [compound 36] | 82 | 95 | 75 | – | – | – |
| C[S+]([O-])c1ccc(C(=O)CCN2CCN(c3ccc(CO)c(Cl)c3)CC2)cc1 (stereo not shown) [compound 38] | 73 | 91 | – | – | – | – |
| O=C(CCN1CCN(c2ccc(CO)c(Cl)c2)CC1)c1ccc(Cl)cc1Cl [compound 39] | 86 | 94 | 70 | – | – | – |
| O=C(CCN1CCN(c2ccc(CO)c(Cl)c2)CC1)c1ccc(F)cc1F [compound 40] | 86 | 99 | 71 | – | – | – |
| O=C(CCN1CCN(c2ccc(CO)c(Cl)c2)CC1)c1ccc(Cl)c(Cl)c1Cl [compound 41] | 83 | 96 | 82 | – | – | – |
| O=C(CCN1CCN(c2ccc(CO)c(Cl)c2)CC1)c1ccc(Br)cc1 [compound 42] | 84 | 98 | 82 | – | – | – |
| O=C(CCN1CCN(c2ccc(CO)c(Cl)c2)CC1)c1cc(Cl)ccc1Cl [compound 43] | 80 | 98 | 84 | – | – | – |
| O=C(CCN1CCN(c2ccc(CO)c(Cl)c2)CC1)c1ccc(-c2ccccc2)cc1 [compound 44] | 89 | 97 | 69 | – | – | – |
